Measurements taken from patent publication US3949075A, “Anti-microbial compounds of 2', 4' substituted anilides of substituted nitrosalicylic acid for quadruped animals” (Ferro Corporation, priority 1974, dated 1976).
Where two headings read alike, the source gives them in different places.

What was measured:
Fasciola hepatica = assay: Test for activity against liver flukes, Fasciola hepatica, in infected sheep; format: in vivo; details: Fasciola hepatica, read-out: Fasciola hepatica, percentage of microorganism killed
Description: (§1) Test for activity against liver flukes were conducted as follows:
(§2) Eggs of Fasciola hepatica were collected from the bile of donor sheep. The eggs were embryonated and snails were infected (the genus Lymnaea serves as intermediate host) to produce Metacercariae which are the infective forms for sheep. Each sheep was infected with 250 metacercariae intraruminally. When the infection became patent in ca. 80 days, egg counts were carried out to determine the degree of worm burden. The liver was processed to recover F. hepatica in the untreated and treated sheep.
(§3) The data of the tables were generated using procedures previously described. The compounds tested are disubstituted and, except for Example 50 which is dibromo, are dichloro. Where the position for the substituents is other than 2' and 4', it is indicated. Under the indicated microorganisms, the values given in this and the following tables, should be read as: percentage of microorganism killed/dose in milligrams per kilogram of body weight. Under "Tolerance", the term "Tol." means "tolerated", "Tox." means "toxic", and "Sym." means "symptoms of toxic reaction", all at the dosage value which follows. It will be appreciated that there is no sharp toxicity end point in determining toxicity to living sheep.

sheep = assay: Tolerance / toxicity in sheep; format: in vivo; design: key to Tolerance at 100 mg/kg / Tolerance at 50 mg/kg: "toxic" refers to death of sheep resulting from the use of the indicated compound at the indicated dosage; key to Tolerance: Tol.: tolerated; Tox.: toxic; Sym.: symptoms of toxic reaction
Description: (§4) The results of tests on sheep in a manner described, supra, using compounds of the present invention are given in Table 1, Examples 5 through 13. The numbers in the column headed "Haemonchus (15 mg/kg)" refer to the percent of parasites destroyed or expelled when the indicated compound was introduced into the rumen of sheep at a dosage of 15 milligrams per kilogram of body weight. The values under "Tolerance (mg/kg)" refer to the highest test dosage in the milligrams of anthelmintic per kilogram of body weight at which the sheep developed no toxic symptoms. "Tol." is an abbreviation for "tolerated". The symbols R1 and R2 refer to those of Formula I in these and other following examples.
(§5) The importance of the 2',4' substitution on the anilide moiety of Formula I is illustrated by the case of the dichloro substitution as summarized in Table III. […] This has been mentioned briefly hereinabove. As used herein, "toxic" refers to death of sheep resulting from the use of the indicated compound at the indicated dosage.
as §3

Haemonchus contortus = assay: Percent of Haemonchus destroyed or expelled in infected sheep (egg count after treatment); format: in vivo, Haemonchus contortus (in sheep); details: sheep
Description: Two groups of sheep were used in the tests. One group was used as a non-medicated control, while the other group was treated with the compound under investigation. Helminth-free young lambs were infected with about 10,000 filariform larvae of Haemonchus contortus. In three weeks when the infection became apparent, egg counts were made to determine the density of the worm burden.
The egg count was carried out using the following modified Stoll method. Three grams of sheep feces were taken rectally from each animal and placed in a Stoll flask. To each flask, tap water was added to the top line. The fecal pellets were too hard to break down, the flasks were closed with rubber stoppers and kept in the refrigerator for several hours. The flasks were thoroughly shaken and a 1 ml. sample was drawn from the middle using a wide mouth pipette. This 1 ml. sample was transferred to an 8 ml. plastic tube, to which enough saturated sodium chloride solution was added to reach the rim. The tubes were then centrifuged for 10 minutes at 1500 r.p.m. Then sodium chloride solution was added with a medicine dropper forming a concave miniscus. A cover glass was carefully added and the tubes were kept in a refrigerator for ten to twenty minutes. During that period, the nematode ova flowed upward and adhered to the bottom of the cover glass slip. At the end of the 20-minute period, the cover slip was carefully detached from the miniscus and transferred to a microscopic slide. The ova were then counted under a microscope equipped with 10X ocular and 10X objective lens. Each ovum under the microscope represented 20 ova in the sample.
Animals with sufficiently high egg counts were taken out of the pool and housed in experimental pens. Since the salicylanilides of the present invention are water insoluble, the compounds were first ground using a mortar and pestle and then were placed in a carboxymethyl cellulose solution. The particles were further micronized ultrasonically. The compound was then administered to two or three animals by Oesophageal gavage. Control, untreated animals, received only the carboxymethyl cellulose solution in a similar manner. On the sixth and seventh day after treatment, fecal pellets were taken from the rectum of the control as well as the treated animals and egg counts were made.
as §4, §3

[1] = Tolerance / toxicity in sheep; format: in vivo; design: key to Tolerance at 100 mg/kg / Tolerance at 50 mg/kg: "toxic" refers to death of sheep resulting from the use of the indicated compound at the indicated dosage; key to Tolerance: Tol.: tolerated; Tox.: toxic; Sym.: symptoms of toxic reaction; details: in vivo, Table 1, read-out: Tolerance, highest test dosage at which the sheep developed no toxic symptoms
Description: as §4, §5, §3

[2] = tested on: liver flukes of the genus Fasciola; assay: Utility against liver flukes of the genus Fasciola in sheep (oral); format: in vivo; details: 15 mg/kg
Description: as §1, §2
The compounds of this invention also have utility against liver flukes.

[3] = tested on: Haemonchus and Fasciola hepatica; assay: Dual activity against Haemonchus and Fasciola in sheep and therapeutic ratio; format: in vivo; details: sheep; Table X
[4] = Haemonchus contortus, iv, Tables III and IV, read-out: Effectiveness (%) at 15 mg/kg
[5] = Haemonchus contortus, Tables VIII-XI, read-out: Haemonchus, percentage of microorganism killed
[6] = sheep, 15 mg/kg, Tables VIII-XI
[7] = Haemonchus contortus, 5 mg/kg, Tables VIII-XI, read-out: Haemonchus, percentage of microorganism killed

## Cc1c([N+](=O)[O-])cc(C(C)(C)C)c(O)c1C(=O)Nc1cc(Cl)cc(Cl)c1 [Example 26]
Fasciola hepatica
  inhibition in vivo at 15 mg/kg: 100%
sheep; 40 mg./kg., Table VIII
  Tolerance: Tol.
Haemonchus contortus; [4]
  inhibition in vivo at 15 mg/kg: 67%
Haemonchus contortus; [5]
  inhibition in vivo at 15 mg/kg: 67%
Haemonchus contortus
  effectiveness against the parasites, in words: too low to be useful

## Cc1c([N+](=O)[O-])cc(C(C)(C)C)c(O)c1C(=O)Nc1ccc(C(F)(F)F)cc1 [Example 10, 3-tert. butyl-6-methyl-5-nitro-4'-trifluoromethylsalicylanilide]
Fasciola hepatica; [6]
  inhibition in vivo at 15 mg/kg: 100%
[1]
  NOAEL: 15 to 50 mg/kg
[2]
  effect against liver flukes: efficacious
Haemonchus contortus; Haemonchus contortus, Table V, read-out: Effectiveness at 15 mg/kg against Haemonchus
  inhibition in vivo at 15 mg/kg: 100%
Haemonchus contortus; [5]
  inhibition in vivo at 15 mg/kg: 100%
Haemonchus contortus; into rumen, Table 1
  Haemonchus (15 mg/kg), percent of parasites destroyed or expelled: 100%

## Cc1c([N+](=O)[O-])cc(C(C)(C)C)c(O)c1C(=O)Nc1cc(Cl)c(Cl)cc1Cl [Example 36]
sheep; 15 mg/kg, Table VI
  Toxicity (printed in the column Effectiveness at 15 mg/kg against Haemonchus): Toxic

## Cc1c([N+](=O)[O-])cc(C(C)(C)C)c(O)c1C(=O)Nc1ccc(Br)cc1Br [Example 50]
Fasciola hepatica; sheep, 5 mg/kg, Tables VIII-XI
  inhibition in vivo at 5 mg/kg: 100%
Haemonchus contortus; [7]
  inhibition in vivo at 5 mg/kg: 99.8%

## Cc1c([N+](=O)[O-])cc(C(C)(C)C)c(O)c1C(=O)Nc1ccc(Cl)cc1C(F)(F)F [Example 13]
Fasciola hepatica; sheep, 1 mg/kg, Tables VIII and X
  inhibition in vivo at 1 mg/kg: 100%
Fasciola hepatica; sheep, 2 mg/kg, Tables VIII-XI
  inhibition in vivo at 2 mg/kg: 100%
[3]
  overall activity ranking, in words: most active compounds of the invention
sheep; 15 mg./kg., Tables VIII, X
  Tolerance: Tol.
sheep; 25 mg./kg., Tables IX, X
  Tolerance: Tox.
sheep; 50 mg./kg., Tables VIII-X
  Tolerance: Tox.
[1]
  NOAEL: ≥ 15 mg/kg
Haemonchus contortus; Haemonchus contortus, 1 mg/kg, Table X, read-out: Haemonchus, percentage of microorganism killed
  inhibition in vivo at 1 mg/kg: 76%
Haemonchus contortus; Haemonchus contortus, 2 mg/kg, Tables VIII-XI, read-out: Haemonchus, percentage of microorganism killed
  inhibition in vivo at 2 mg/kg: 96%
Haemonchus contortus; [7]
  inhibition in vivo at 5 mg/kg: 91%
Haemonchus contortus; [5]
  inhibition in vivo at 15 mg/kg: 100%
Haemonchus contortus; into rumen, 2 mg/kg, Table 1
  Haemonchus (2 mg/kg), percent of parasites destroyed or expelled: 96%
Haemonchus contortus; into rumen, 5 mg/kg, Table 1
  Haemonchus (5 mg/kg), percent of parasites destroyed or expelled: 91%
Haemonchus contortus; into rumen, Table 1
  Haemonchus (15 mg/kg), percent of parasites destroyed or expelled: 100%

## Cc1c(Cl)cccc1NC(=O)c1c(C)c([N+](=O)[O-])cc(C(C)(C)C)c1O [Example 28, 3-tert. butyl-3'-chloro 2', 6-dimethyl-5-nitrosalicylanilide]
Fasciola hepatica; [6]
  inhibition in vivo at 15 mg/kg: 0%
sheep; 50 mg./kg., Tables VIII-X
  Tolerance: Tox.
sheep; 50 mg/kg, Tables III and IV
  Tolerance at 50 mg/kg: toxic
[2]
  effect against liver flukes: ineffective against liver flukes
Haemonchus contortus; [4]
  inhibition in vivo at 15 mg/kg: 87%
Haemonchus contortus; [5]
  inhibition in vivo at 15 mg/kg: 87%
